{
  "source": "patent US20050197350A1",
  "about": "“Novel quinoline, tetrahydroquinazoline, and pyrimidine derivatives and methods of treatment related to the use thereof” (TAISHO PHARMACEUTICAL CO., LTD., priority 2003, published 2005)",
  "data": [
    {"system": "MCH receptors", "test": "MCH receptor activity class (method not given)", "settings": "class by percent of control at 10^−7 M or IC50", "values": [
      {"smiles": "Cc1cnc(N[C@H]2CC[C@@H](C(=O)N[C@H](C)c3ccc(F)cc3)CC2)nc1N(C)C", "note": "[compound 2773, cis-4-{[4-(dimethylamino)-5-methylpyrimidin-2-yl]amino}-N-[(1R)-1-(4-fluorophenyl)ethyl]cyclohexanecarboxamide]", "class": "1 (Class 1: The value of percent of control at 10^−7 M was less than 40% or the value of IC50 was less than 50 nM.)"},
      {"smiles": "Cc1cnc(N[C@H]2CC[C@@H](C(=O)N[C@@H](C)c3ccc(F)cc3)CC2)nc1N(C)C", "note": "[compound 2774, cis-4-{[4-(dimethylamino)-5-methylpyrimidin-2-yl]amino}-N-[(1S)-1-(4-fluorophenyl)ethyl]cyclohexanecarboxamide]", "class": "2 (Class 2: The value of percent of control at 10^−7 M was from 40% to 60% or the value of IC′50 was from 50 nM to 200 nM.)"},
      {"smiles": "COc1cccc([C@@H](C)NC(=O)[C@H]2CC[C@@H](Nc3ncc(C)c(N(C)C)n3)CC2)c1", "note": "[compound 2775, cis-4-{[4-(dimethylamino)-5-methylpyrimidin-2-yl]amino}-N-[(1R)-1-(3-methoxyphenyl)ethyl]cyclohexanecarboxamide]", "class": "1 (Class 1: The value of percent of control at 10^−7 M was less than 40% or the value of IC50 was less than 50 nM.)"},
      {"smiles": "COc1cccc([C@H](C)NC(=O)[C@H]2CC[C@@H](Nc3ncc(C)c(N(C)C)n3)CC2)c1", "note": "[compound 2776, cis-4-{[4-(dimethylamino)-5-methylpyrimidin-2-yl]amino}-N-[(1S)-1-(3-methoxyphenyl)ethyl]cyclohexanecarboxamide]", "class": "1 (Class 1: The value of percent of control at 10^−7 M was less than 40% or the value of IC50 was less than 50 nM.)"},
      {"smiles": "COc1ccc([C@H](C)NC(=O)[C@H]2CC[C@@H](Nc3ncc(C)c(N(C)C)n3)CC2)cc1", "note": "[compound 2777, cis-4-{[4-(dimethylamino)-5-methylpyrimidin-2-yl]amino}-N-[(1S)-1-(4-methoxyphenyl)ethyl]cyclohexanecarboxamide]", "class": "1 (Class 1: The value of percent of control at 10^−7 M was less than 40% or the value of IC50 was less than 50 nM.)"},
      {"smiles": "Cc1cnc(N[C@H]2CC[C@@H](C(=O)N[C@H](C)c3ccc(Cl)cc3)CC2)nc1N(C)C", "note": "[compound 2778, cis-N-[(1R)-1-(4-chlorophenyl)ethyl]-4-{[4-(dimethylamino)-5-methylpyrimidin-2-yl]amino}cyclohexanecarboxamide]", "class": "1 (Class 1: The value of percent of control at 10^−7 M was less than 40% or the value of IC50 was less than 50 nM.)"},
      {"smiles": "Cc1cnc(N[C@H]2CC[C@@H](C(=O)N[C@H](C)c3ccc([N+](=O)[O-])cc3)CC2)nc1N(C)C", "note": "[compound 2780, cis-4-{[4-(dimethylamino)-5-methylpyrimidin-2-yl]amino}-N-[(1R)-1-(4-nitrophenyl)ethyl]cyclohexanecarboxamide]", "class": "1 (Class 1: The value of percent of control at 10^−7 M was less than 40% or the value of IC50 was less than 50 nM.)"},
      {"smiles": "Cc1cnc(N[C@H]2CC[C@@H](C(=O)N[C@@H](C)c3ccc([N+](=O)[O-])cc3)CC2)nc1N(C)C", "note": "[compound 2781, cis-4-{[4-(dimethylamino)-5-methylpyrimidin-2-yl]amino}-N-[(1S)-1-(4-nitrophenyl)ethyl]cyclohexanecarboxamide]", "class": "2 (Class 2: The value of percent of control at 10^−7 M was from 40% to 60% or the value of IC′50 was from 50 nM to 200 nM.)"},
      {"smiles": "Cc1cnc(N[C@H]2CC[C@@H](C(=O)N[C@H](C)c3cccc4ccccc34)CC2)nc1N(C)C", "note": "[compound 2782, cis-4-{[4-(dimethylamino)-5-methylpyrimidin-2-yl]amino}-N-[(1R)-1-(1-naphthyl)ethyl]cyclohexanecarboxamide]", "class": "1 (Class 1: The value of percent of control at 10^−7 M was less than 40% or the value of IC50 was less than 50 nM.)"},
      {"smiles": "Cc1cnc(N[C@H]2CC[C@@H](C(=O)Nc3cccc(F)c3)CC2)nc1N(C)C", "note": "[compound 2784, cis-4-{[4-(dimethylamino)-5-methylpyrimidin-2-yl]amino}-N-(3-fluorophenyl)cyclohexanecarboxamide]", "class": "2 (Class 2: The value of percent of control at 10^−7 M was from 40% to 60% or the value of IC′50 was from 50 nM to 200 nM.)"},
      {"smiles": "CCCc1ccc(NC(=O)[C@H]2CC[C@@H](Nc3ncc(C)c(N(C)C)n3)CC2)cc1", "note": "[compound 2785]", "class": "2 (Class 2: The value of percent of control at 10^−7 M was from 40% to 60% or the value of IC′50 was from 50 nM to 200 nM.)"},
      {"smiles": "COc1ccc(NC(=O)[C@H]2CC[C@@H](Nc3ncc(C)c(N(C)C)n3)CC2)cc1", "note": "[compound 2786]", "class": "3 (Class 3 The value of percent of control at 10^−7 M was more than 60% or the value of IC50 was more than 200 nM.)"},
      {"smiles": "COc1cccc(NC(=O)[C@H]2CC[C@@H](Nc3ncc(C)c(N(C)C)n3)CC2)c1", "note": "[compound 2787, cis-4-{[4-(dimethylamino)-5-methylpyrimidin-2-yl]amino}-N-(3-methoxyphenyl)cyclohexanecarboxamide]", "class": "1 (Class 1: The value of percent of control at 10^−7 M was less than 40% or the value of IC50 was less than 50 nM.)"},
      {"smiles": "Cc1cnc(N[C@H]2CC[C@@H](C(=O)Nc3cccc(Cl)c3)CC2)nc1N(C)C", "note": "[compound 2788, cis-N-(3-chlorophenyl)-4-{[4-(dimethylamino)-5-methylpyrimidin-2-yl]amino}cyclohexanecarboxamide]", "class": "1 (Class 1: The value of percent of control at 10^−7 M was less than 40% or the value of IC50 was less than 50 nM.)"},
      {"smiles": "Cc1cnc(N[C@H]2CC[C@@H](C(=O)Nc3ccccc3Br)CC2)nc1N(C)C", "note": "[compound 2789]", "class": "3 (Class 3 The value of percent of control at 10^−7 M was more than 60% or the value of IC50 was more than 200 nM.)"},
      {"smiles": "Cc1cnc(N[C@H]2CC[C@@H](C(=O)N[C@H]3C[C@@H]3c3ccccc3)CC2)nc1N(C)C", "note": "[compound 2790, cis-4-{[4-(dimethylamino)-5-methylpyrimidin-2-yl]amino}-N-[(1S,2R)-2-phenylcyclopropyl]cyclohexanecarboxamide]", "class": "1 (Class 1: The value of percent of control at 10^−7 M was less than 40% or the value of IC50 was less than 50 nM.)"},
      {"smiles": "Cc1cnc(N[C@H]2CC[C@@H](C(=O)Nc3ccc(C(F)(F)F)cc3)CC2)nc1N(C)C", "note": "[compound 2791, cis-4-{[4-(dimethylamino)-5-methylpyrimidin-2-yl]amino}-N-[4-(trifluoromethyl)phenyl]cyclohexanecarboxamide]", "class": "1 (Class 1: The value of percent of control at 10^−7 M was less than 40% or the value of IC50 was less than 50 nM.)"},
      {"smiles": "CSc1ccccc1NC(=O)[C@H]1CC[C@@H](Nc2ncc(C)c(N(C)C)n2)CC1", "note": "[compound 2792]", "class": "2 (Class 2: The value of percent of control at 10^−7 M was from 40% to 60% or the value of IC′50 was from 50 nM to 200 nM.)"},
      {"smiles": "Cc1cnc(N[C@H]2CC[C@@H](C(=O)N3CCc4ccccc4C3)CC2)nc1N(C)C", "note": "[compound 2793]", "class": "3 (Class 3 The value of percent of control at 10^−7 M was more than 60% or the value of IC50 was more than 200 nM.)"},
      {"smiles": "Cc1ccc([C@H](C)NC(=O)[C@H]2CC[C@@H](Nc3nc(C)cc(N(C)C)n3)CC2)cc1", "note": "[compound 2795]", "class": "1 (Class 1: The value of percent of control at 10^−7 M was less than 40% or the value of IC50 was less than 50 nM.)"}
    ]}
  ]
}
